Reference: ChEMBL document CHEMBL1134130, “Carbonic anhydrase inhibitors: 4-sulfamoyl-benzenecarboxamides and 4-chloro-3-sulfamoyl-benzenecarboxamides with strong topical antiglaucoma properties” (Bioorg Med Chem Lett, 2001)

What was measured:
Oryctolagus cuniculus [1] = species on record: Oryctolagus cuniculus
Description: In vivo intraocular pressure (IOP) lowering at 90 min in normotensive rabbits after treatment with one drop (50 uL) 2% solution of CA inhibitor directly into the eye, at 7.0 pH

Oryctolagus cuniculus [2] = assay: In vivo intraocular pressure (IOP) lowering at 0 min in normotensive rabbits after treatment with one drop (50 uL) 2% solution of CA inhibitor directly into the eye, at 7.0 pH; assay type: functional
Carbonic anhydrase 2 = Carbonic anhydrase 2 (Homo sapiens, UniProt P00918)
Description: Binding affinity against human carbonic anhydrase II (hCA -II)

Oryctolagus cuniculus [3] = species on record: Oryctolagus cuniculus; remark: listed apart in the source
Description: In vivo intraocular pressure (IOP) lowering at 30 min in normotensive rabbits after treatment with one drop (50 uL) 2% solution of CA inhibitor directly into the eye, at 7.0 pH

Carbonic anhydrase 4 = biological target: T1, Carbonic anhydrase 4 (Bos taurus, UniProt Q95323)
T1 sequence (Q95323 whole entry): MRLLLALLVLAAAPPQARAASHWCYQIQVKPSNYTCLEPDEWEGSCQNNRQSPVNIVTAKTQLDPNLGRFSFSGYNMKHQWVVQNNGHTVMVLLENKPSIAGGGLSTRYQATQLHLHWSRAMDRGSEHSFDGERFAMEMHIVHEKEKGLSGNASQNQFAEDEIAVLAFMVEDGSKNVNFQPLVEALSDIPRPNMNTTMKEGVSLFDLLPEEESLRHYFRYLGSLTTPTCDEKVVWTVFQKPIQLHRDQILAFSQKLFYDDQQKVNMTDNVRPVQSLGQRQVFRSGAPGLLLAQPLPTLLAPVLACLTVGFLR
Description: Compound was evaluated for binding affinity against bovine carbonic anhydrase IV (bCA IV)

Oryctolagus cuniculus [4] = species on record: Oryctolagus cuniculus; remark: listed apart in the source
physchem = conditions: octanol/water
Description: Partition coefficient (logP)

[5] = Compound was evaluated for in vitro corneal permeability in no epithelium; assay type: ADME, tissue-based, Cornea
Carbonic anhydrase 1 = Carbonic anhydrase 1 (Homo sapiens, UniProt P00915)
Description: Binding affinity against human carbonic anhydrase I (hCA I)

[6] = Compound was evaluated for in vitro corneal permeability in cornea intact; assay type: ADME, tissue-based
Oryctolagus cuniculus [7] = species on record: Oryctolagus cuniculus; remark: listed apart in the source
Description: In vivo intraocular pressure (IOP) lowering at 120 min in normotensive rabbits after treatment with one drop (50 uL) 2% solution of CA inhibitor directly into the eye, at 7.0 pH

Oryctolagus cuniculus [8] = assay: In vivo intraocular pressure (IOP) lowering at 0 min in normotensive rabbits after treatment with one drop (50 uL) 2% solution of CA inhibitor directly into the eye, at 7.5 pH; assay type: functional
Oryctolagus cuniculus [9] = assay: In vivo intraocular pressure (IOP) lowering at 60 min in normotensive rabbits after treatment with one drop (50 uL) 2% solution of CA inhibitor directly into the eye, at 7.0 pH; assay type: functional
Oryctolagus cuniculus [10] = assay: In vivo intraocular pressure (IOP) lowering at 90 min in normotensive rabbits after treatment with one drop (50 uL) 2% solution of CA inhibitor directly into the eye, at 7.5 pH; assay type: functional
Oryctolagus cuniculus [11] = assay: In vivo intraocular pressure (IOP) lowering at 60 min in normotensive rabbits after treatment with one drop (50 uL) 2% solution of CA inhibitor directly into the eye, at 7.5 pH; assay type: functional
Oryctolagus cuniculus [12] = species on record: Oryctolagus cuniculus; remark: listed apart in the source
Description: Fall of in vivo intraocular pressure (IOP) of glaucomatous rabbits at 30 min after treatment with one drop (50 uL) solution of 2% of CA inhibitor directly into eye

Oryctolagus cuniculus [13] = assay: In vivo intraocular pressure (IOP) lowering at 30 min in normotensive rabbits after treatment with one drop (50 uL) 2% solution of CA inhibitor directly into the eye, at 7.5 pH; assay type: functional
Oryctolagus cuniculus [14] = species on record: Oryctolagus cuniculus; remark: listed apart in the source
Description: Fall of in vivo intraocular pressure (IOP) of glaucomatous rabbits at 120 min after treatment with one drop (50 uL) solution of 2% of CA inhibitor directly into eye

Oryctolagus cuniculus [15] = species on record: Oryctolagus cuniculus; remark: listed apart in the source
Description: Fall of in vivo intraocular pressure (IOP) of glaucomatous rabbits at 90 min after treatment with one drop (50 uL) solution of 2% of CA inhibitor directly into eye

Oryctolagus cuniculus [16] = assay: In vivo intraocular pressure (IOP) lowering at 120 min in normotensive rabbits after treatment with one drop (50 uL) 2% solution of CA inhibitor directly into the eye, at 7.5 pH; assay type: functional
Oryctolagus cuniculus [17] = species on record: Oryctolagus cuniculus; remark: listed apart in the source
Description: Fall of in vivo intraocular pressure (IOP) of glaucomatous rabbits at 60 min after treatment with one drop (50 uL) solution of 2% of CA inhibitor directly into eye

Oryctolagus cuniculus [18] = species on record: Oryctolagus cuniculus; remark: listed apart in the source
Description: Fall of in vivo intraocular pressure (IOP) of glaucomatous rabbits at 0 min after treatment with one drop (50 uL) solution of 2% of CA inhibitor directly into eye

Chain of Carbonic anhydrase 1 (P00915 whole entry): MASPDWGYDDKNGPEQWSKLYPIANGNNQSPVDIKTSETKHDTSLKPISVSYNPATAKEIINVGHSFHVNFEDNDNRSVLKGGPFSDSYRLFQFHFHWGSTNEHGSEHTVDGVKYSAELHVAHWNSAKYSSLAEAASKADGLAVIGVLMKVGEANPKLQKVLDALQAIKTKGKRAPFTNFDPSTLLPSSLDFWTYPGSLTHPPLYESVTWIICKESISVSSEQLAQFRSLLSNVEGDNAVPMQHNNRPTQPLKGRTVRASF

SMILES	Delta IOP (Oryctolagus cuniculus [1]) [mmHg]	Ki (Carbonic anhydrase 2) [nM]	Delta IOP (Oryctolagus cuniculus [3]) [mmHg]	Ki (Carbonic anhydrase 4) [nM]	logP (physchem)	Km x10e3 [5] [hr-1]	Ki (Carbonic anhydrase 1) [nM]	Km x10e3 [6] [hr-1]	Delta IOP (Oryctolagus cuniculus [7]) [mmHg]	Delta IOP (Oryctolagus cuniculus [8]) [mmHg]	further results
CC(C)C[C@H](NC(=O)c1ccc(S(N)(=O)=O)cc1)C(=O)NCC(=O)O	7.8	9	3.3	16	1.82	6.4	400	3.3	8.7	–	Delta IOP (Oryctolagus cuniculus [2]): 0 mmHg; Delta IOP (Oryctolagus cuniculus [4]): 5.2 mmHg
NS(=O)(=O)c1ccc(C(=O)Nc2nnc(S)s2)cc1	3.1	5	7	14	–	–	38	–	2.1	0	Delta IOP (Oryctolagus cuniculus [9]): 5 mmHg
NS(=O)(=O)c1nnc(NC(=O)c2ccc(Cl)c(S(N)(=O)=O)c2)s1	–	10	–	22	1.89	7	13	3.1	–	0	Delta IOP (Oryctolagus cuniculus [10]): 8.3 mmHg; Delta IOP (Oryctolagus cuniculus [11]): 7.1 mmHg; Delta IOP (Oryctolagus cuniculus [12]): 6.4 mmHg; Delta IOP (Oryctolagus cuniculus [13]): 2.5 mmHg; Delta IOP (Oryctolagus cuniculus [14]): 13.3 mmHg; Delta IOP (Oryctolagus cuniculus [15]): 14.2 mmHg; Delta IOP (Oryctolagus cuniculus [16]): 7.5 mmHg; Delta IOP (Oryctolagus cuniculus [17]): 13 mmHg; Delta IOP (Oryctolagus cuniculus [18]): 0 mmHg
